{"source": "patent US6855507B2", "about": "“Method of screening for pharmaceuticals by detecting cross talk between intracellular signals and intranuclear receptors” (Chugai Seiyaku Kabushiki Kaisha, priority 1998, dated 2005)", "system": "VDR and Smad3", "test": "GST-pull down analysis of VDR and Smad3 interaction (cell-free)", "type": "binding", "conditions": "FIG. 5", "description": "GST fused Smad3 or VDR (full length peptide 1-424, partial peptides: amino acid sequence 115-424, 115-357, 115-300 and others, see FIG. 4) fused proteins (GST-Smad3 or GST-VDR) were expressed by using E.coli, and were captured on beads with glutatione-Sepharose bead (Pharmacia) to accomplish affinity purification. On the other hand, ^35S-methionine-labeled Smad3 and VDR were prepared in cell-free system by using reticulocyte lysate translation system (Promega). GST-Smad3 or GST-VDR fixed on beads described above was incubated with ^35S-methionine labeled VRD or Smad3. By using polyacrylamide gel electrophoresis, ^35S-methionine labeled VDR or Smad3 were analyzed.", "data": [{"smiles": "C=C1/C(=C\\C=C2/CCC[C@]3(C)[C@@H]([C@H](C)CCCC(C)(C)O)CC[C@@H]23)C[C@@H](O)C[C@@H]1O", "note": "[1,25(OH)2VD3]", "values": [{"measurement": "binding of full length VDR to Smad3 in the presence of ligand", "setting": "1 nM", "result": "slightly bound"}, {"measurement": "ligand requirement of binding of VDR partial peptides 115-357 and 115-300 to Smad3", "result": "did not require"}]}]}
